# In patent publication US20040014794A1, “Use of hydroxypyridone-derivatives in wound healing” (priority 2002, published 2004):
# Where a name gives a salt, the structure may show the parent alone. Read-outs that look alike come from different tables or passages of the source.
# How the values were obtained:
# [1] = system: chicken chorioallantoic membrane (CAM)
# Protocol: CAM assays were performed as described by Olivo, M. et al. (A Comparative Study on The Effects of Tumor Necrosis Factor-A (TNF-α), Human Angiogenic Factor (h-AF) and Basic Fibroblast Growth Factor (bFGF) on the Chorioallantoic Membrane of the Chick Embryo, (1992) Anat. Rec. 234, 105-115). Briefly, fertilized eggs (purchased from Lohmann Tierzucht, Cuxhaven, Germany) were incubated at 37° C. in a humidified atmosphere. The eggs were kept on their sides and turned upside down twice a day. After 6 days, a small hole was drilled through the shell into the air sac (visualized using a strong light source) and a window of approximately 0.5 cm^2 was sawed into the side of the egg. The window was sealed with tape and the eggs were reincubated until day 9, when 6-cyclohexyl-1-hydroxy-4-methyl-2(1H)-pyridone 2-aminoethanol salt (CPX) was applied to the CAM using the Elvax® method (see Olivo, M. et al. above). Therefore, ethylene/vinyl acetate copolymer beads (Elvax®) 40L-03, DuPont, provided by C. H. Erbslöh KG, Krefeld, Germany) were extensively washed in ethanol and dried under reduced pressure. The Elvax® beads were then dissolved in methylene chloride at 10% (w/v) and CPX was added to the desired concentration. One drop (40 μL) of this solution was pipetted onto a siliconized glass slide and the solvent was allowed to evaporate completely. Using forceps, the Elvax® disc was carefully lifted from the glass slides and placed onto the CAM. At day 11, the window was enlarged and the CAM was documented using a digital camera (Olympus) coupled to an ocular of a stereomicroscope.
# Therefore, the chicken CAM at day 9 of development was overlaid with inert polymer discs containing various concentrations of CPX or solvent only.
# rabbit skin = conditions: 1% CPX solution applied on rabbit skin over 20 days; cited from earlier work
# [2] = system: gram-positive and gram-negative bacteria; conditions: cited from earlier work
# HIF-1α protein = HIF-1α protein induction in HepG2 hepatoma cells; assay type: cell-based, human; conditions: for HIF-1α levels, combination with hypoxia: CPX plus hypoxia (1% O2)
# Protocol: (§1) The HRCHO5 cells containing a stable transfected, HIF-1-dependent reporter gene were described previously (Wanner, R. M., et al. (2000), Epolones Induce Erythropoietin Expression Via Hypoxia-Inducible Factor-1α Activation, Blood 96, 1558-1565). The human HepG2 hepatoma cell line was obtained from American Type Culture Collection (ATCC numbers HB-8065). All cell lines were cultured in Dulbecco's modified Eagle's medium (DMEM, high glucose, Life Technologies) supplemented with 10% heat-inactivated FCS, 100 U/ml penicillin, 100 μg/ml streptomycin, 1× non-essential amino acids and 1 mM Na-pyruvate (all purchased from Life Technologies) in a humidified atmosphere containing 5% CO2 at 37° C. Oxygen partial pressures in the incubator (Forma Scientific, model 3131) were either 140 mm Hg (20% 02 v/v, normoxia) or 7 mm Hg (1% O2 v/v, hypoxia). Ciclopirox olamine (CPX), deferoxamine mesylate (DFX) and 2,2′-dipyridyl (DP) were purchased from Sigma. Stock solutions of CPX and DP were prepared in methanol at 0.5 M and 1 M, respectively. DFX was freshly dissolved at 10 mM into the cell culture medium.
# VEGF promoter = experiment: VEGF promoter-driven luciferase reporter gene assay in transiently transfected HepG2 cells; assay type: cell-based, human; conditions: increasing concentrations of CPX for 24 hours
# Protocol: The HRCHO5 cells containing a stable transfected, HIF-1-dependent reporter gene were described previously (Wanner, R. M., et al. (2000), Epolones Induce Erythropoietin Expression Via Hypoxia-Inducible Factor-1α Activation, Blood 96, 1558-1565). The human HepG2 hepatoma cell line was obtained from American Type Culture Collection (ATCC numbers HB-8065). All cell lines were cultured in Dulbecco's modified Eagle's medium (DMEM, high glucose, Life Technologies) supplemented with 10% heat-inactivated FCS, 100 U/ml penicillin, 100 μg/ml streptomycin, 1× non-essential amino acids and 1 mM Na-pyruvate (all purchased from Life Technologies) in a humidified atmosphere containing 5% CO2 at 37° C. […]
# HepG2 cells were transiently electroporated with a VEGF promoter-driven luciferase construct as described previously (Ikeda, E., et al. (1995), Hypoxia-Induced Transcriptional Activation and Increased mRNA Stability of Vascular Endothelial Growth Factor in C6 Glioma Cells, J. Biol. Chem. 270, 19761-19766). Following stimulation, transiently and stable transfected cells were lysed in passive lysis buffer (Promega) and the luciferase activity was determined using a luciferase assay kit according to the manufacturer's instructions (Promega) in a 96-well luminometer (MicroLumat LB96P, EG&G Berthold). […] Absorbances at 570 nm were determined in a 96-well photometer (Rainbow, SLT Labsystems). […]
# isolated rat kidneys = experiment: Isolated perfused rat kidney (ex vivo model)
# From the text: Systemically administered DFX can induce ubiquitous HIF-1 stability and kidney-specific erythropoietin expression in mice (Wang, G. L., and Semenza, G. L. (1993), Desferrioxamine Induces Erythropoietin Gene Expression and Hypoxia-Inducible Factor 1 DNA-Binding Activity: Implications for Models of Hypoxia Signal Transduction, Blood 82, 3610-3615). Regarding a topical application of CPX as a HIF-1-inducing agent for therapeutic angiogenesis, it was important to test whether CPX could lead to a systemic induction of VEGF. […]
# VEGF protein = experiment: Accumulation of VEGF protein in the supernatant of the HepG2 cell culture; assay type: cell-based, human; conditions: following 6 or 24 hours of treatment
# Protocol: as §1
# [3] = system: HIF-1 target genes VEGF, glucose transporter-1 (Glut-1) and aldolase; experiment: Northern blotting of mRNA of endogenous HIF-1 target genes in HepG2 cells; assay type: cell-based, human; conditions: HepG2 cells treated for 24, 48 and 72 hours; control genes L28 and β-actin not induced
# Protocol: as §1
# NMRI mice = experiment: Mouse skin wound model (punch-through ear holes); conditions: dermal cream containing 1% CPX, daily
# Protocol: Both ears of adult NMRI mice were wounded under anesthesia with 100 mg/kg ketamine (Narketan®) and 5 mg/kg xylazine (Rompun®) by punch-through holes of 2 mm diameter using a standard ear-punching tool. The ears were treated daily with a common skin cream containing (Batrafen®) or not containing 1% (w/v) CPX. One ear was treated with CPX and the other ear with the control cream. The amount of cream was sufficient to cover the hole and was equally distributed over the entire ear.
# Punch-through ear holes of 2 mm diameter (a widespread way of marking mice in animal facilities) were treated daily with a commercially available dermal cream containing 1% CPX on one ear and a CPX-free but otherwise identical common dermal cream on the other ear, respectively.
# HIF-1 = conditions: systemically administered, mice; cited from earlier work
# [4] = higher CPX concentrations (33 μM and 100 μM)
# [5] = perfused 3 hours, normoxic, 0.1 μM to 100 μM
structure (smiles),measurement,setting,value
"Cc1cc(C2CCCCC2)n(O)c(=O)c1.NCCO [CPX, 6-cyclohexyl-1-hydroxy-4-methyl-2(1H)-pyridone 2-aminoethanol salt]",number of CAMs showing angiogenesis,"[1]; 50 mM CPX, all 7 control CAMs lacked angiogenesis",10
same,CAM angiogenesis,[1]; polymer discs containing 5 mM CPX,indistinguishable from the controls
same,CAM angiogenesis,"[1]; polymer discs containing 50 mM CPX, two days of incubation",consistently induced CAM angiogenesis
same,toxicity to the chick embryo,[1]; polymer discs containing 500 mM CPX,toxic
same,reddening of experimentally wounded skin,rabbit skin,persistent reddening
same,reddening of healthy skin,rabbit skin,occasionally transient reddening
same,effectiveness against gram-positive and gram-negative bacteria,[2],effective
same,HIF-1α protein,"HIF-1α protein; 5 μM to 20 μM, normoxic HepG2 cells, after 6 and 24 hours of treatment",strongly induced
same,"HIF-1α levels, combination with hypoxia",HIF-1α protein; after 6 hours,did not further increase
same,"HIF-1α levels, combination with hypoxia",HIF-1α protein; after 24 hours of treatment,decreased
same,luciferase activity (1180 bp VEGF promoter fragment),VEGF promoter,dose-dependent increase
same,albumin and sodium excretion rates,isolated rat kidneys; [4],strong increase
same,kidney function,isolated rat kidneys; [4],down regulation
same,Glut-1 mRNA level,isolated rat kidneys; [5],did not induce
same,VEGF mRNA level,isolated rat kidneys; [5],did not induce
same,aldolase mRNA level,isolated rat kidneys; [5],did not induce
same,Glut-1 mRNA level under hypoxic perfusion,isolated rat kidneys; perfusion with 3% oxygen for 3 hours plus CPX,not further elevated
same,VEGF protein in the supernatant,VEGF protein,increased in a dose-dependent manner
same,expression of VEGF mRNA,[3],induced
same,expression of aldolase mRNA,[3],induced
same,expression of glucose transporter-1 (Glut-1) mRNA,[3],induced
same,animals showing reddening of the wound margin,NMRI mice,4 of 10
same,reddening of the wound margin,NMRI mice,can cause reddening
same,angiogenesis in mouse skin wound model,NMRI mice; ear holes of 2 mm diameter,can induce angiogenesis
"CC(=O)N(O)CCCCCNC(=O)CCC(=O)N(O)CCCCCNC(=O)CCC(=O)N(O)CCCCCN [DFX, deferoxamine mesylate]",kidney-specific erythropoietin expression,HIF-1,can induce
same,ubiquitous HIF-1 stability,HIF-1,can induce
same,expression of VEGF mRNA,[3],induced
same,expression of aldolase mRNA,[3],induced
same,expression of glucose transporter-1 (Glut-1) mRNA,[3],induced
"c1ccc(-c2ccccn2)nc1 [DP, 2,2′-dipyridyl]",expression of VEGF mRNA,[3],induced
same,expression of aldolase mRNA,[3],induced
same,expression of glucose transporter-1 (Glut-1) mRNA,[3],induced
